Where two headings read alike, the source gives them in different places.
Tests used:
[1] = tested on: FXR target gene expression in the liver; test: liver gene expression by QPCR after 14 days oral FEX-D or SALK110; assay type: in vivo, Mice; conditions: 50 mg/kg PO 14 days
Protocol: Mice were treated daily with vehicle, FEX-D, or SALK110 (NSSK00110, 50 mg kg^−1) (see FIG. 29A) by oral (PO) gavage for 14 days, with tissues collected 1 hour after the final treatment. Gene expression changes in the liver were measured by QPCR.

Human FXR full length = target: T1, Human FXR full length (Homo sapiens, UniProt Q96RI1); test: FXR activity screen, luciferase reporter in transfected CV-1 cells; assay type: cell-based
T1 construct: Human FXR full length and RXR full length was obtained from Ronald Evans' laboratory; expressed in transfected cells; host or cells: CV-1 cells
T1 sequence (Q96RI1 1-476 isoform Q96RI1-1): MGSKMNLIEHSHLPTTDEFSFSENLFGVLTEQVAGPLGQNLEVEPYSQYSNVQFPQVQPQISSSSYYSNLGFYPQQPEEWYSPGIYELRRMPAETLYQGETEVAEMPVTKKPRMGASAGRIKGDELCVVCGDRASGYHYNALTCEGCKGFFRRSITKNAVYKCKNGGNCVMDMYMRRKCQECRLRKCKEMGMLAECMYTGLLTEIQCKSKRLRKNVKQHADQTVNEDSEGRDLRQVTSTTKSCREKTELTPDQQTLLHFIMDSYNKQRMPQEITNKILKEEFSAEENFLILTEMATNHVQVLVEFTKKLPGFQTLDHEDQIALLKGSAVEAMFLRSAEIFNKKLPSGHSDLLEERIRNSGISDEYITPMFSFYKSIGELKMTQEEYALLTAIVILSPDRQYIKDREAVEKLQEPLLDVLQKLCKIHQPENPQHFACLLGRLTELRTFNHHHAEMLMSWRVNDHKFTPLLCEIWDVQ
T1 sequence (P19793 1-462 partner): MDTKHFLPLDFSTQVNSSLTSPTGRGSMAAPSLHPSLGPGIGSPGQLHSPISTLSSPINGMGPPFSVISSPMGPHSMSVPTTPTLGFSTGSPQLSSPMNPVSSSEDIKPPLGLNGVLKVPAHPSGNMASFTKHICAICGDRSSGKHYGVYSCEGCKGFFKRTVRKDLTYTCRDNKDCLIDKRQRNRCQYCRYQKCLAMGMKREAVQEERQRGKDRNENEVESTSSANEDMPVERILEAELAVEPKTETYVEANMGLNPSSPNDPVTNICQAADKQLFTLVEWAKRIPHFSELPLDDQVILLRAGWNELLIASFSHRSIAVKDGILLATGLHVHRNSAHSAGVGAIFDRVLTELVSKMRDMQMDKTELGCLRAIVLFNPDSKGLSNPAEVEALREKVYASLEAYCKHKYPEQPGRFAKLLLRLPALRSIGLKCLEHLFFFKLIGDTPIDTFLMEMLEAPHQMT
Protocol: CV-1 cells were grown in DMEM+10% charcoal stripped FCS. Cells were seeded into 384-well plates the day before transfection to give a confluency of 50-80% at transfection. A total of […] DNA containing 0.32 micrograms pCMX-hFXRfl, 0.32 micrograms pCMX-hRXRfl, 0.1 micrograms pCMXβGal, 0.08 micrograms pGLFXRE reporter and 0.02 micrograms pCMX empty vector was transfected per well using FuGene transfection reagent according to the manufacturer's instructions (Roche). Cells were allowed to express protein for 48 hours followed by addition of compound.
Human FXR full length and RXR full length was obtained from Ronald Evans' laboratory and PCR amplification of the hFXR cDNA and the hRXR cDNA was performed. The amplified cDNAs was cloned into the vector pCMX generating the plasmids pCMX-hFXRfl and pCMX-hRXRfl. Ensuing fusions were verified by sequencing. The pCMXMH2004 luciferase reporter contains multiple copies of the GAL4 DNA response element under a minimal eukaryotic promoter (Hollenberg and Evans, 1988). pCMXβGal was generated in the Evans laboratory, Salk Institute.
All compounds were dissolved in DMSO and diluted 1:1000 upon addition to the cells. Compounds were tested in quadruple in concentrations ranging from 0.001 to 100 μM. Cells were treated with compound for 24 hours followed by luciferase assay. Each compound was tested in at least two separate experiments.
Medium including test compound was aspirated and washed with PBS. 50 μL PBS including 1 mM Mg^2+ and Ca^2+ were then added to each well. The luciferase assay was performed using the LucLite kit according to the manufacturer's instructions (Packard Instruments). Light emission was quantified by counting on a Perkin Elmer Envision reader. To measure […] activity 25 μL supernatant from each transfection lysate was transferred to a new 384 microplate. Beta-galactosidase assays were performed in the microwell plates using a kit from Promega and read in a Perkin Elmer Envision reader. The beta-galactosidase data were used to normalize (transfection efficiency, cell growth etc.) the luciferase data.
The activity of a compound is calculated as fold induction compared to an untreated sample. For each compound the efficacy (maximal activity) is given as a relative activity compared to Fexaramine, a FXR agonist. The EC50 is the concentration giving 50% of maximal observed activity. EC50 values were calculated via non-linear regression using GraphPad PRISM (GraphPad Software, San Diego, Calif.).

ob/ob mice = test: fexaramine and deuterated analogs in ob/ob mice, 2 weeks; assay type: in vivo; conditions: 2 weeks at 50 mg/kg PO
Protocol: An in vivo study of fexaramine and selectively-deuterated fexaramine compounds (FIG. 29A) was performed. Briefly, ob/ob mice were treated daily with vehicle, Fex, or deuterated analogs (50 mg kg^−1) by oral (PO) gavage for 2 weeks. Subsequently, body weight, body temperature, fasting blood glucose and insulin levels, insulin secretion, and GLP1 section were measured, and glucose tolerance tests (GTTs) performed.

human L cells = test: oxygen consumption rate of intestinal L cells (Seahorse analyzer); assay type: cell-based; conditions: fexaramine 1 μM for 24 hours
Protocol: FIG. 41 is a graph showing the effects of modulating FXR activity on the oxidative metabolism of intestinal L cells. L cells were treated with the FXR agonist fexaramine, the FXR antagonist Guggulsterone, or a combination of both, prior to measurement of their oxygen consumption rate (OCR) in a Seahorse analyzer.
To examine the effects of FXR in the secretion of GLP-1, the metabolic changes induced in human L cells was measured by treatment with the FXR agonist, fexaramine and an FXR antagonist guggulsterone. Treatment of L cells with fexaramine (1 μM for 24 hours) lead to an increase in the oxygen consumption rate (OCR), consistent with increased mitochondrial activity and consequently, an increased energetic state (FIG. 41). The reverse effect was seen after treatment with the FXR antagonist, guggulsterone, with lower OCR after drug treatment.

[2] = first round, CV-1 cells, 24 hours, read-out: 1st RND EC50
[3] = retest, read-out: EC50 (retested)
[4] = second round, CV-1 cells, 24 hours, read-out: 2nd RND EC50

EC50 (Human FXR full length; [2]) [nM] | EC50 (Human FXR full length; [4]) [nM] | SMILES | further results
340 | 375 | [2H]C(c1ccc(-c2ccc3c(cnn3C)c2)cc1)N(C(=O)C1CCCCC1)c1cc(F)cc(/C=C/C(=O)OC)c1 (stereo not shown) [NSSK00096, methyl (E)-3-(3-fluoro-5-(N-((4-(1-methyl-1H-indazol-5-yl)phenyl)methyl-d)cyclohexanecarboxamido)phenyl)acrylate] | EC50 (Human FXR full length; [3]): 220 nM
866 | 726 | COC(=O)/C=C/c1cc(F)cc(N(Cc2ccc(-c3ccc4c(cnn4C)c3)cc2Cl)C(=O)C2CCCCC2)c1 [NSSK00097] | 
655 | 670 | COC(=O)/C=C/c1cccc(N(Cc2ccc(-c3ccc4c(cnn4C)c3)cc2Cl)C(=O)c2ccccc2)c1 [NSSK00098] | 
2100 | 2100 | COC(=O)/C=C/c1cc(F)cc(N(Cc2ccc(-c3ccc4c(cnn4C)c3)cc2F)C(=O)c2ccccc2)c1 [NSSK00099] | 
1400 | 1800 | COC(=O)/C=C/c1cc(F)cc(N(Cc2ccc(-c3ccc4c(cnn4C)c3)cc2Cl)C(=O)c2ccccc2)c1 [NSSK00100] | 
5900 | 15100 | [2H]C(c1ccc(-c2ccc3c(cnn3C)c2)cc1Cl)N(C(=O)c1ccccc1)c1cncc(/C=C/C(=O)OC)c1 (stereo not shown) [NSSK00101] | 
227 | 547 | [2H]C(c1ccc(-c2ccc(N(C)C)cc2)cc1Cl)N(C(=O)[C@@H]1C[C@@H]2CC[C@H]1C2)c1cc(F)cc(/C=C/C(=O)OC)c1 (stereo partly shown) [NSSK00104] | 
190 | 316 | [2H]C(c1ccc(-c2ccc(N(C)C)cc2)cc1F)N(C(=O)C1CCCCC1)c1cc(F)cc(/C=C/C(=O)OC)c1 (stereo not shown) [NSSK00109] | 
652 | 2700 | [2H]C(c1ccc(-c2ccc3c(cnn3C)c2)cc1)N(C(=O)[C@@H]1C[C@@H]2CC[C@H]1C2)c1cc(F)cc(/C=C/C(=O)OC)c1 (stereo partly shown) [NSSK00113] | 
983 | 1300 | COC(=O)/C=C/c1cc(F)cc(N(Cc2ccc(-c3ccc(N(C)C)cc3)cc2Cl)C(=O)C2CCCCC2)c1 [NSSK00117] | 

Continued, molecule first:

SMILES | EC50 (Human FXR full length; [2]) [nM] | EC50 (Human FXR full length; [4]) [nM] | further results
[2H]C(c1ccc(-c2ccc(N(C)C)cc2)cc1)N(C(=O)C1CCCCC1)c1cccc(/C=C/C(=O)OC)c1 (stereo not shown) [NSSK00077, methyl (E)-3-(3-(N-((4′-(dimethylamino)-[1,1′-biphenyl]-4-yl)methyl-d)cyclohexanecarboxamido)phenyl)acrylate] | 177 | 150 | expression of FXR target genes SHP and BSEP in the liver [1]: fail to alter; EC50 (Human FXR full length; [3]): 98 nM; core body temperature (ob/ob mice): more effective at increasing core body temperature than Fex; fasting blood glucose levels (ob/ob mice): significantly reduced
COC(=O)/C=C/c1cc(F)cc(N(Cc2ccc(-c3ccc(N(C)C)cc3)cc2)C(=O)[C@@H]2C[C@@H]3CC[C@H]2C3)c1 [NSSK00102] | 252 | 328 | 
COC(=O)/C=C/c1cc(F)cc(N(Cc2ccc(-c3ccc(N(C)C)cc3)cc2Cl)C(=O)c2ccccc2)c1 [NSSK00103] | 308 | 1000 | 
[2H]C(c1ccc(-c2ccc(N(C)C)cc2)cc1)N(C(=O)[C@@H]1C[C@@H]2CC[C@H]1C2)c1cccc(/C=C/C(=O)OC)c1 (stereo partly shown) [NSSK00107] | 450 | 861 | 
[2H]C(c1ccc(-c2ccc(N(C)C)cc2)cc1F)N(C(=O)c1ccccc1)c1cc(F)cc(/C=C/C(=O)OC)c1 (stereo not shown) [NSSK00108] |  | 497 | 
[2H]C(c1ccc(-c2ccc(N(C)C)cc2)cc1F)N(C(=O)[C@@H]1C[C@@H]2CC[C@H]1C2)c1cc(F)cc(/C=C/C(=O)OC)c1 (stereo partly drawn) [NSSK00110, methyl (E)-3-(3-((1S,2R,4R)—N-((4′-(dimethylamino)-3-fluoro-[1,1′-biphenyl]-4-yl)methyl-d)bicyclo[2.2.1]heptane-2-carboxamido)-5-fluorophenyl)acrylate] | 60.1 | 174 | EC50 (Human FXR full length; [3]): 46 nM
[2H]C(c1ccc(-c2ccc(N(C)C)cc2)cc1)N(C(=O)c1ccccc1)c1cc(F)cc(/C=C/C(=O)OC)c1 (stereo not shown) [NSSK00114] | 264 | 614 | 
COC(=O)/C=C/c1cncc(N(Cc2ccc(-c3ccc(N(C)C)cc3)cc2F)C(=O)[C@@H]2C[C@@H]3CC[C@H]2C3)c1 [NSSK00115] |  | 2000 | 
[2H]C(c1ccc(-c2ccc(N(C)C)cc2)cc1F)N(C(=O)c1ccccc1)c1cncc(/C=C/C(=O)OC)c1 (stereo not shown) [NSSK00116] |  | 8600 | 
COC(=O)/C=C/c1cncc(N(Cc2ccc(-c3ccc4c(cnn4C)c3)cc2)C(=O)c2ccccc2)c1 [NSSK00118] | 7000 | 55000 | 
[2H]C(c1ccc(-c2ccc3c(cnn3C)c2)cc1)N(C(=O)c1ccccc1)c1cncc(/C=C/C(=O)OC)c1 (stereo not shown) [NSSK00119] | 798 | 65000 | 
C/C=C1\C(=O)C[C@H]2[C@@H]3CCC4=CC(=O)CC[C@]4(C)[C@H]3CC[C@]12C [guggulsterone] |  |  | oxygen consumption rate (OCR) (human L cells): lower OCR

From patent US20190084939A1, “ANALOGS OF FEXARAMINE AND METHODS OF MAKING AND USING” (Salk Institute for Biological Studies, priority 2014, published 2019)
